Counter-ions that a name gives are not always drawn. Like-named read-outs stand apart in the source and are kept apart here.
Target: human complement factor B (CVF-Bb complex) (Homo sapiens (Human), UniProt P00751)
Assay: Human Complement Factor B ELISA Assay
Format: biochemical
Procedure: Human Complement Factor B ELISA Assay
CVF-Bb complex prepared from purified cobra venom factor (1 μM), recombinant human complement factor B (expressed in drosophila cells and purified using standard methods) and human complement factor D (expressed in E. Coli, refolded and purified using standard methods). CVF-Bb complex at 3 nM concentration was incubated with test compound at various concentrations for 1 hour at room temperature in PBS pH 7.4 containing 10 mM MgCl2 and 0.05% (w/v) CHAPS. Human complement C3 substrate purified from plasma was added to a final concentration of 1 μM. After 1 hour incubation at room temperature, the enzyme reaction was stopped by addition of a cocktail of concentrated pan-protease inhibitors. The product of the reaction, C3a, was quantified by means of an enzyme-linked-immunosorbent assay. IC50 values were calculated from percentage of inhibition of CVF-Bb activity as a function of test compound concentration.

[1] = CVF-Bb complex 3 nM, 1 hour preincubation with compound at room temperature, human C3 substrate 1 μM, C3a quantified by ELISA, read-out: Factor B IC50

Row | SMILES | IC50 [1] | IC50
1 | COc1cc2c(N)nc(N3CCN(C(=O)c4cc5ccccc5[nH]4)CC3)nc2c(F)c1OC [Example 17, [4-(4-Amino-8-fluoro-6,7-dimethoxy-quinazolin-2-yl)-piperazin-1-yl]-(1H-indol-2-yl)-methanone] | 340 nM | –
2 | COCCOc1c(OC)cc2c(N)nc(N3CCN(C(=O)C[C@@H](N)c4ccc(C#N)cc4)CC3)nc2c1F [Example 70, 4-((R)-1-Amino-3-{4-[4-amino-8-fluoro-6-methoxy-7-(2-methoxy-ethoxy)-quinazolin-2-yl]-piperazin-1-yl}-3-oxo-propyl)benzonitrile] | 110 nM | –
3 | CC[C@H]1CN(C(=O)C[C@@H]2CCCCN2)CCN1c1nc(N)c2cc(OC)c(OC)c(F)c2n1 [Example 117, 1-[(S)-4-(4-Amino-8-fluoro-6,7-dimethoxy-quinazolin-2-yl)-3-ethyl-piperazin-1-yl]-2-(S)-piperidin-2-yl-ethanone] | 780 nM | –
4 | COc1cc2nc(N3CCN(C(=O)/C=C/C4CC4)CC3)nc(N)c2c(F)c1OC [Example 12, (E)-1-[4-(4-Amino-5-fluoro-6,7-dimethoxy-quinazolin-2-yl)-piperazin-1-yl]-3-cyclopropyl-propenone] | 140 nM | –
5 | COc1cc2c(N)nc(N3CCN(C(=O)C[C@@H](NC(CF)CF)c4ccc(F)cc4)CC3)nc2c(F)c1OC [Example 87, (R)-1-(4-(4-amino-8-fluoro-6,7-dimethoxyquinazolin-2-yl)piperazin-1-yl)-3-(1,3-difluoropropan-2-ylamino)-3-(4-fluorophenyl)propan-1-one] | 40 nM | –
6 | COc1cc2c(N)nc(N3CCN(C(=O)C[C@@H](N)c4ccc(F)cc4)CC3)nc2c(Cl)c1OC [Example 82, (R)-3-Amino-1-(4-(4-amino-8-chloro-6,7-dimethoxyquinazolin-2-yl)piperazin-1-yl)-3-(4-fluorophenyl)propan-1-one] | 1020 nM | –
7 | [2H]C([2H])([2H])C([2H])([2H])N[C@H](CC(=O)N1CCN(c2nc(N)c3cc(OC)c(OC)c(F)c3n2)CC1)c1ccc(F)cc1 [Example 131, (R)-1-(4-(4-amino-8-fluoro-6,7-dimethoxyquinazolin-2-yl)piperazin-1-yl)-3-(1,1,2,2,2-d^5 ethylamino)-3-(4-fluorophenyl)propan-1-one] | 3 nM | –
8 | COc1cc2c(N)nc(N3CCN(C(=O)C[C@@H](N)c4ccc(F)cc4)CC3)nc2c(F)c1OC [Example 46, (R)-3-Amino-1-[4-(4-amino-8-fluoro-6,7-dimethoxy-quinazolin-2-yl)-piperazin-1-yl]-3-(4-fluoro-phenyl)-propan-1-one] | 40 nM | –
9 | COc1cc2c(N)nc(N3CCN(C(=O)C[C@H](c4ccc(F)cc4)N4CCCCC4)CC3)nc2c(F)c1OC [Example 99, (R)-1-[4-(4-Amino-8-fluoro-6,7-dimethoxy-quinazolin-2-yl)-piperazin-1-yl]-3-(4-fluoro-phenyl)-3-piperidin-1-yl-propan-1-one] | 6 nM | –
10 | COc1cc2c(N)nc(N3[C@H](C)CN(C(=O)C[C@@H](NC(C)C)c4ccc(C#N)cc4)C[C@@H]3C)nc2c(F)c1OC [Example 97, 4-((R)-3-((3R,5S)-4-(4-amino-8-fluoro-6,7-dimethoxyquinazolin-2-yl)-3,5-dimethylpiperazin-1-yl)-1-(isopropylamino)-3-oxopropyl)benzonitrile] | 11 nM | –
11 | COc1cc2c(N)nc(N3CCN(C(=O)C[C@@H]4CCCNC4)CC3)nc2c(F)c1OC [Example 114, 1-[4-(4-Amino-8-fluoro-6,7-dimethoxy-quinazolin-2-yl)-piperazin-1-yl]-2-(S)-piperidin-3-yl-ethanone] | 3870 nM | –
12 | CN[C@H](CC(=O)N1CCN(c2nc(N)c3cc(OC)c(OC)c(F)c3n2)CC1)C1CCCCC1 [Example 78, (R)-1-(4-(4-amino-8-fluoro-6,7-dimethoxyquinazolin-2-yl)piperazin-1-yl)-3-cyclohexyl-3-(methylamino)propan-1-one] | 80 nM | –
13 | COc1cc2c(N)nc(N3CCN(C(=O)C[C@@H](N)c4ccc(C(F)(F)F)cc4)CC3)nc2c(F)c1OC [Example 55, (R)-3-Amino-1-[4-(4-amino-8-fluoro-6,7-dimethoxy-quinazolin-2-yl)piperazin-1-yl]-3-(4-trifluoromethyl-phenyl)-propan-1-one hydrochloride] | – | 160 nM
14 | COc1cc2c(N)nc(N3CCN(C(=O)/C=C/C4CC4)CC3)nc2c(F)c1OC [Example 1, (E)-1-[4-(4-Amino-8-fluoro-6,7-dimethoxy-quinazolin-2-yl)-piperazin-1-yl]-3-cyclopropyl-propenone hydrochloride] | 500 nM | –
15 | COc1cc2c(N)nc(N3CCN(C(=O)C[C@@H]4CCCN4)C[C@@H]3c3ccccc3)nc2c(F)c1OC [Example 120, 1-[(S)-4-(4-Amino-8-fluoro-6,7-dimethoxy-quinazolin-2-yl)-3-phenyl-piperazin-1-yl]-2-(S)-pyrrolidin-2-yl-ethanone] | 80 nM | –
16 | COc1cc2c(N)nc(N3CCN(C(=O)C[C@H](c4ccccc4)N(C)C)CC3)nc2c(F)c1OC [Example 85, (R)-1-[4-(4-Amino-8-fluoro-6,7-dimethoxy-quinazolin-2-yl)-piperazin-1-yl]-3-dimethylamino-3-phenyl-propan-1-one] | 80 nM | –
17 | COc1cc2c(N)nc(N3CCN(C(=O)C[C@@H](N)c4ccc(C#N)cc4)C[C@@H]3C)nc2c(F)c1OC [Example 58, 4-{(R)-1-Amino-3-[(S)-4-(4-amino-8-fluoro-6,7-dimethoxy-quinazolin-2-yl)-3-methyl-piperazin-1-yl]-3-oxo-propyl}-benzonitrile hydrochloride] | – | 9 nM
18 | COc1cc2c(N)nc(N3CCN(C(=O)C[C@@H](NCC4CC4)c4ccsc4)CC3)nc2c(F)c1OC [Example 93, (R)-1-(4-(4-amino-8-fluoro-6,7-dimethoxyquinazolin-2-yl)piperazin-1-yl)-3-(cyclopropylmethylamino)-3-(thiophen-3-yl)propan-1-one] | 4 nM | –
19 | COc1cc2c(N)nc(N3CCN(C(=O)C[C@@H](N)C4CCCC4)CC3)nc2c(F)c1OC [Example 32, (R)-3-Amino-1-[4-(4-amino-8-fluoro-6,7-dimethoxy-quinazolin-2-yl)-piperazin-1-yl]-3-cyclopentyl-propan-1-one] | 100 nM | –
20 | COc1cc2c(N)nc(N3CCN(C(=O)CC4CNCCO4)C[C@@H]3c3ccccc3)nc2c(F)c1OC (stereo partly drawn) [Example 123, 1-[(S)-4-(4-Amino-8-fluoro-6,7-dimethoxy-quinazolin-2-yl)-3-phenyl-piperazin-1-yl]-2-morpholin-2-yl-ethanone] | 890 nM | –
21 | CCC[C@H]1CN(C(=O)C[C@@H](N)c2ccc(C(F)(F)F)cc2)CCN1c1nc(N)c2cc(OC)c(OC)c(F)c2n1 [Example 68, (R)-3-Amino-1-[(S)-4-(4-amino-8-fluoro-6,7-dimethoxy-quinazolin-2-yl)-3-propyl-piperazin-1-yl]-3-(4-trifluoromethyl-phenyl)-propan-1-one hydrochloride] | – | 60 nM
22 | COc1cc2c(N)nc(N3CCN(C(=O)[C@@H]4CCc5ccccc5[C@@H]4N)C[C@@H]3c3ccccc3)nc2c(F)c1OC [Example 107, [(S)-4-(4-Amino-8-fluoro-6,7-dimethoxy-quinazolin-2-yl)-3-phenyl-piperazin-1-yl]-((1R,2R)-1-amino-1,2,3,4-tetrahydro-naphthalen-2-yl)-methanone] | 240 nM | –
23 | CCC[C@H]1CN(C(=O)c2cc3cc(F)ccc3[nH]2)CCN1c1nc(N)c2cc(OC)c(OC)c(F)c2n1 [Example 27, [(S)-4-(4-Amino-8-fluoro-6,7-dimethoxy-quinazolin-2-yl)-3-propyl-piperazin-1-yl]-(5-fluoro-1H-indol-2-yl)-methanone] | 280 nM | –
24 | COCCOc1c(OC)cc2c(N)nc(N3CCN(C(=O)C[C@@H]4CCCCN4)CC3)nc2c1F [Example 125, 1-{4-[4-Amino-8-fluoro-6-methoxy-7-(2-methoxy-ethoxy)-quinazolin-2-yl]-piperazin-1-yl}-2-(S)-piperidin-2-yl-ethanone] | 9950 nM | –
25 | COCCOc1c(OC)cc2c(N)nc(N3CCN(C(=O)/C=C/c4ccc(C#N)cc4)CC3)nc2c1F [Example 11, 4-((E)-3-{4-[4-Amino-8-fluoro-6-methoxy-7-(2-methoxy-ethoxy)-quinazolin-2-yl]-piperazin-1-yl}-3-oxo-propenyl)-benzonitrile] | 230 nM | –
26 | COc1cc2c(N)nc(N3CCN(C(=O)C[C@@H]4CCCCN4)C[C@@H]3c3ccccc3)nc2c(F)c1OC [Example 121, 1-[(S)-4-(4-Amino-8-fluoro-6,7-dimethoxy-quinazolin-2-yl)-3-phenyl-piperazin-1-yl]-2-(S)-piperidin-2-yl-ethanone] | 20 nM | –
27 | COc1cc2c(N)nc(N3CCN(C(=O)C[C@H](c4ccc(F)cc4)N4CCCC4)CC3)nc2c(F)c1OC [Example 103] | 15 nM | –
28 | COc1cc2c(N)nc(N3CCN(C(=O)C[C@@H](N)c4cccc(F)c4)CC3)nc2c(F)c1OC [Example 45, (R)-3-Amino-1-[4-(4-amino-8-fluoro-6,7-dimethoxy-quinazolin-2-yl)-piperazin-1-yl]-3-(3-fluoro-phenyl)-propan-1-one] | 50 nM | –
29 | COc1cc2c(N)nc(N3CCN(C(=O)C[C@@H](N)c4ccc(C)cc4)CC3)nc2c(F)c1OC [Example 41, (R)-3-Amino-1-[4-(4-amino-8-fluoro-6,7-dimethoxy-quinazolin-2-yl)-piperazin-1-yl]-3-p-tolyl-propan-1-one] | 70 nM | –
30 | COc1cc2c(N)nc(N3CCN(C(=O)C[C@H]4NCCc5ccccc54)CC3)nc2c(F)c1OC [Example 127, 1-[4-(4-Amino-8-fluoro-6,7-dimethoxy-quinazolin-2-yl)-piperazin-1-yl]-2-(R)-1,2,3,4-tetrahydro-isoquinolin-1-yl-ethanone] | 200 nM | –
